# Values quoted from earlier work as cited in patent US11077045B2, “Blood microperfusion to skin by Shilajit” (Natreon, Inc., priority 2018, dated 2021).
# Assays:
# [1] = transdermal preparation, subjects with diabetes
# [2] = low-dose administration, rats
structure (smiles),measurement,setting,value
N=C(N)NCCC[C@H](N)C(=O)O [L-arginine],blood flow in feet,[1],improved
same,microperfusion of rat skin,[2],increase microperfusion
